Reference: paper PMC6208384 (2018)

Columns and labels:
[1] = tested on: DIR2s_GAAACAC (RNA, aptamer) GGAUGCGCCUUGAAAAGCCUGCGAAACACGCAGCUGGUGAAUGACAGCUAUGGCGCAUCC; test: fluorescence activation; details: 150 mM NaCl, 5 mM MgCl2; 50 mM Tris pH 7.4, 20 °C; loop version (UUCG or GAAACAC) not stated
[2] = tested on: Abasic A40 (RNA, aptamer, abasic at 40) GGAUGCGCCUUGAAAAGCCUGCGAAACACGCAGCUGGUGNAUGACAGCUAUGGCGCAUCC; test: fluorescence activation; details: 150 mM NaCl, 5 mM MgCl2; 50 mM Tris pH 7.4, 20 °C; RNA 3 µM, dye 6 µM; fluorescence diminished
[3] = tested on: G39, A40, A41 to U (RNA, aptamer) GGAUGCGCCUUGAAAAGCCUGCGAAACACGCAGCUGGUUUUUGACAGCUAUGGCGCAUCC; test: fluorescence activation; details: 150 mM NaCl, 5 mM MgCl2; 50 mM Tris pH 7.4, 20 °C; RNA 3 µM, dye 6 µM; fluorescence abolished
[4] = tested on: A40U (RNA, aptamer) GGAUGCGCCUUGAAAAGCCUGCGAAACACGCAGCUGGUGUAUGACAGCUAUGGCGCAUCC; test: fluorescence activation; details: 150 mM NaCl, 5 mM MgCl2; 50 mM Tris pH 7.4, 20 °C; RNA 3 µM, dye 6 µM; fluorescence as WT
[5] = tested on: Abasic G39 (RNA, aptamer, abasic at 39) GGAUGCGCCUUGAAAAGCCUGCGAAACACGCAGCUGGUNAAUGACAGCUAUGGCGCAUCC; test: fluorescence activation; details: 150 mM NaCl, 5 mM MgCl2; 50 mM Tris pH 7.4, 20 °C; RNA 3 µM, dye 6 µM; fluorescence diminished
[6] = tested on: 5 bp P1 (RNA, aptamer) GGCCUUGAAAAGCCUGCGAAACACGCAGCUGGUGAAUGACAGCUAUGGCC; test: fluorescence activation; details: 150 mM NaCl, 5 mM MgCl2; 50 mM Tris pH 7.4, 20 °C; RNA 3 µM, dye 6 µM; fluorescence as WT
[7] = tested on: A41U (RNA, aptamer) GGAUGCGCCUUGAAAAGCCUGCGAAACACGCAGCUGGUGAUUGACAGCUAUGGCGCAUCC; test: fluorescence activation; details: 150 mM NaCl, 5 mM MgCl2; 50 mM Tris pH 7.4, 20 °C; RNA 3 µM, dye 6 µM; fluorescence as WT
[8] = tested on: DIR2s_GAAACAC (RNA, aptamer) GGAUGCGCCUUGAAAAGCCUGCGAAACACGCAGCUGGUGAAUGACAGCUAUGGCGCAUCC; test: fluorescence titration; details: 150 mM NaCl, 5 mM MgCl2; 50 mM Tris pH 7.4, 20 °C; construct assigned from review file b5063
[9] = tested on: 0 bp P1 (RNA, aptamer) GGAAAAGCCCGCGAAACACGCAGCUGGUGAAUGACAGCU; test: fluorescence activation; details: 150 mM NaCl, 5 mM MgCl2; 50 mM Tris pH 7.4, 20 °C; RNA 3 µM, dye 6 µM; ca. 80% of WT fluorescence
[10] = tested on: A15C; A40, A41 to G (RNA, aptamer) GGAUGCGCCUUGAACAGCCUGCGAAACACGCAGCUGGUGGGUGACAGCUAUGGCGCAUCC; test: fluorescence activation; details: 150 mM NaCl, 5 mM MgCl2; 50 mM Tris pH 7.4, 20 °C; RNA 3 µM, dye 6 µM; fluorescence abolished
[11] = tested on: DIR2s_WT (UUCG) (RNA, aptamer) GGAUGCGCCUUGAAAAGCCUGCUUCGGCAGCUGGUGAAUGACAGCUAUGGCGCAUCC; test: fluorescence activation; details: 150 mM NaCl, 5 mM MgCl2; 50 mM Tris pH 7.4, 20 °C
[12] = tested on: DIR2s_GAAACAC (RNA, aptamer) GGAUGCGCCUUGAAAAGCCUGCGAAACACGCAGCUGGUGAAUGACAGCUAUGGCGCAUCC; test: X-ray crystal structure, 1.86 Å; details: 10 mM MgCl2, 1.8 M Li2SO4; 50 mM MES pH 5.6; ternary complex with Fab BL3-6
[13] = tested on: DIR2s_GAAACAC (RNA, aptamer) GGAUGCGCCUUGAAAAGCCUGCGAAACACGCAGCUGGUGAAUGACAGCUAUGGCGCAUCC; test: fluorescence competition; details: 150 mM NaCl, 5 mM MgCl2; 50 mM Tris pH 7.4, 20 °C; OTB-SO3 displaced, 500 nM RNA, 600 nM OTB-SO3
[14] = tested on: Fab BL3-6, PDB:6DB9_2+PDB:6DB9_3; test: filter binding; details: 5 mM Mg2+; no dye mentioned; Filter binding: 50 mM Tris pH 7.4, 150 mM NaCl, 5 mM MgCl2, 0.1 U/uL RNase inhibitor, 2 nM-2 uM Fab, 30 min; RNA refolded at 50 C then RT (binding temperature …)

CN1C=CC(=Cc2sc3ccccc3[n+]2CC(=O)NCCOCCOCCOCCNC(=O)CCCC[C@@H]2SC[C@@H]3NC(=O)N[C@@H]32)c2ccccc21
binding [1]: yes

CN1/C(=C/c2sc3ccccc3[n+]2CCCS(=O)(=O)[O-])Oc2ccccc21
binding [2]: weak | binding [3]: no | binding [4]: yes | binding [5]: weak | binding [6]: yes | binding [7]: yes | Kd [8]: 708 ± 16 nM | binding [9]: yes | binding [10]: no | binding [11]: yes | binding [12]: yes

CN1C(=CC=Cc2cc[n+](CCCS(=O)(=O)[O-])c3ccccc23)C(C)(C)c2ccccc21
binding [13]: yes

GGAUGCGCCUUGAAAAGCCUGCGAAACACGCAGCUGGUGAAUGACAGCUAUGGCGCAUCC [DIR2s_GAAACAC RNA]
Kd [14]: 67 nM
